Experimental data: ChEMBL document CHEMBL4613224, “Synthesis, in-vitro antiprotozoal activity and molecular docking study of isothiocyanate derivatives” (Bioorg Med Chem, 2020)
Calls of active or inactive are those of the source. The rule behind the calls is not given here.

What was measured:
[1] = system: Plasmodium falciparum; assay: Antiplasmodial activity against Plasmodium falciparum K1 assessed as reduction in parasite growth by [3H]-hypoxanthine incorporation assay; format: functional, organism-based
[2] = system: Trypanosoma brucei rhodesiense; assay: Antitrypanosomal activity against bloodstream Trypanosoma brucei rhodesiense STIB900 assessed as parasite growth inhibition at 2 ug/ml measured after 70 hrs by Alamar blue assay relative to control; format: functional; conditions: STIB900, 70 h
[3] = system: L6; assay: Cytotoxicity against rat L6 cells assessed as reduction in cell viability measured after 72 hrs by Alamar blue based inverted microscopy analysis; conditions: L6, 72 h, read-out: IC50
[4] = system: Leishmania donovani; assay: Antileishmanial activity against Leishmania donovani MHOM-ET-67/L82 axenic amastigotes assessed as parasite growth inhibition measured after 72 hrs by Alamar blue based inverted microscopy analysis; format: functional, organism-based; conditions: MHOM-ET-67/L82, 72 h
[5] = system: Leishmania donovani; assay: Antileishmanial activity against Leishmania donovani MHOM-ET-67/L82 axenic amastigotes assessed as parasite growth inhibition at 2 to 10 ug/ml measured after 72 hrs by Alamar blue based inverted microscopy analysis relative to control; format: functional
[6] = system: Leishmania donovani; assay: Potency index, ratio of miltefosine IC50 to test compound IC50 for antileishmanial activity against Leishmania donovani MHOM-ET-67/L82 axenic amastigotes assessed as parasite growth inhibition measured after 72 hrs by Alamar blue based inverted microscopy analysis; format: functional
[7] = Selectivity index, ratio of IC50 for rat L6 cells assessed as reduction in cell viability measured after 72 hrs by Alamar blue based inverted microscopy analysis to IC50 for Plasmodium falciparum NF54 measured after 24 hrs in presence of [3H] hypoxanthine by liquid scintillation counter analysis; format: toxicity; conditions: read-out: Ratio IC50
[8] = Selectivity index, ratio of IC50 for rat L6 cells assessed as reduction in cell viability measured after 72 hrs by Alamar blue based inverted microscopy analysis to IC50 for Leishmania donovani MHOM-ET-67/L82 axenic amastigotes assessed as parasite growth inhibition measured after 72 hrs by Alamar blue based inverted microscopy analysis; format: toxicity; conditions: L6 cells, read-out: Ratio IC50
[9] = Selectivity index, ratio of IC50 for rat L6 cells assessed as reduction in cell viability measured after 72 hrs by Alamar blue based inverted microscopy analysis to IC50 for bloodstream Trypanosoma brucei rhodesiense STIB900 assessed as parasite growth inhibition measured after 70 hrs by Alamar blue assay; format: toxicity; conditions: read-out: Ratio IC50
[10] = system: Trypanosoma cruzi; assay: Antitrypanosomal activity against Trypanosoma cruzi Tulahuen C4 trypomastigotes infected in rat L6 cells assessed as parasite growth inhibition at 2 ug/ml measured after 96 hrs by inverted microscopy analysis relative to control; format: functional
[11] = system: Plasmodium falciparum; assay: Antiplasmodial activity against Plasmodium falciparum NF54 measured after 24 hrs in presence of [3H] hypoxanthine by liquid scintillation counter analysis; format: functional, organism-based
[12] = system: Trypanosoma brucei rhodesiense; assay: Antitrypanosomal activity against bloodstream Trypanosoma brucei rhodesiense STIB900 assessed as parasite growth inhibition measured after 70 hrs by Alamar blue assay; format: functional, organism-based; conditions: STIB900, 70 h

Row | IC50 [12] | SMILES | IC50 [1] | inhibition at 2 µg/mL [2] | IC50 [3] | IC50 [4] | inhibition (INH) [5] | Ratio IC50 [6] | selectivity ratio at 72 h [7] | selectivity ratio at 72 h [8] | selectivity ratio at 72 h [9] | inhibition [10] | IC50 [11]
1 |  | COc1ccc([C@H](O)[C@H]2c3c(cc4c(c3OC)OCO4)CCN2C)c(CO)c1OC | 8 µM |  |  |  |  |  |  |  |  |  | 
2 | 1.1 µM | C[C@@H](CCCN=C=S)[C@H]1CC[C@H]2[C@@H]3CC[C@@H]4C[C@H](O)CC[C@]4(C)[C@H]3C[C@H](O)[C@]12C |  | > 50% | 3.6 µM | 0.4 µM | >90% | 2 | 1.1 | 9.9 | 3.3 | inactive | 3.4 µM
